Assays:
[1] = system: PRP (ADP platelet agglutination); test: ADP platelet agglutination inhibitory action by PRP; format: cell-based; set-up: reference not given here; settings: 37° C., 0.025 μm filtrate
Description: Fifty (50) μl of the fat emulsion obtained in Examples 1 and 2 was transferred into 950 μl of saline or 2 % bovine serum albumin (BSA) and incubated at 37° C. for 1, 3, and 10 minutes. Next, the ADP platelet agglutination inhibitory action by PRP was determined using the filtrate which had been passed through a 0.025 μm filter. A known quantity of the dilution before filtration was added to PRP and incubated at 37° C. for 1 minute. Thereafter, ADP agglutination was induced to construct a dose-response curve. The platelet agglutination inhibitory action was calculated from this curve.

human platelets = test: Time course of the formation of cyclic AMP using human platelets (production capability and maintenance of cyclic AMP); format: cell-based; settings: for Relative value (C-AMP production): first time point of the series = 100; for C-AMP production: human platelets, 37° C.
Description: The time course of the formation of cyclic AMP by the fat emulsion in the invention was determined using human platelets so as to compare with the time course of the compound which was not emulsified in fat. Human blood 50 ml was collected using 1 part of 3.8 % sodium citrate for 9 parts of blood. The blood sample was centrifuged at 1300 rpm for 10 minutes. The upper layer was taken out as PRP (platelet-rich plasma) and centrifuged at 3000 rpm for 20 minutes. The precipitate thus obtained (platelets) was suspended in 2 ml of Tris buffered solution-saline-glucose-EDTA (TSG-EDTA) (pH 7.4).
The fat emulsion, which had previously been transferred in a plastic tube containing 350 μl of TSG-EDIA and 50 μl of platelet suspension and incubated at 37° C., was supplemented with 50 μl of 5mM isobutylmethylxanthin dissolved in saline, and 2 minutes later, reactions were stopped with 0.5 ml of 10% trichloroacetic acid (TCA). The cells were destroyed by thawing the lyophilized specimen in order to release intracellular cyclic AMP. After removal of TCA with watersaturated ether, the content of C-AMP was determined by radio immunoassay technique.

Row | Compound | Platelet agglutination inhibitory action ([1]; 2% BSA, incubation time 1 min) | Platelet agglutination inhibitory action ([1]; 2% BSA, incubation time 10 min) | Platelet agglutination inhibitory action ([1]; Saline, incubation time 10 min) | Relative value (C-AMP production) (human platelets; Time 0 min) | C-AMP production (human platelets; Time 0 min) | Relative value (C-AMP production) (human platelets; Time 30 min) | C-AMP production (human platelets; Time 30 min) | Relative value (C-AMP production) (human platelets; Time 60 min) | C-AMP production (human platelets; Time 60 min) | Relative value (C-AMP production) (human platelets; Time 10 min) | C-AMP production (human platelets; Time 10 min) | Relative value (C-AMP production) (human platelets; Time 120 min) | C-AMP production (human platelets; Time 120 min)
1 | CCCCCC(O)C=CC1C(O)CC2C=C(CCCCC(=O)OC)CC21 (centres unmarked) [(IV), isocarbacyclin methyl ester] | 65.4% | 56.2% | – | – | – | – | – | – | – | – | – | – | –
2 | CCCCCC(O)C=CC1C(O)CC2C=C(CCCCC(=O)O)CC21 (stereo not drawn) [Compound (I), 9(0)-methano-Δ^6(9α) -PGI1] | 100.1% | 107.7% | 41.1% | 100% | 320 pico mol | 63% | 200 pico mol | 31% | 100 pico mol | – | – | – | –
3 | CCCCCC(O)C=CC1C(O)CC2C=C(CCCCC(=O)O)CC21 (centres unmarked) [Compound (II), 16,17,18,19,20-pentanor-15-pentylisocarbacyclin] | – | – | – | – | – | 74% | 320 pico mol | 27% | 120 pico mol | 100% | 430 pico mol | – | –
4 | COC(=O)CCCC=C1OC2CC(O)C(C=CC(O)C3CCCC3)C2C1F (centres unmarked) [Compound (III), 7-fluoro-16,17,18,19, 20-pentanor-15-cyclopentylprostacyclin methyl ester] | – | – | – | – | – | 100% | 100 pico mol | 90% | 90 pico mol | – | – | 40% | 40 pico mol

— patent US5124352A, “Fat emulsions containing isocarbacyclin” (Teijin Limited, priority 1985, dated 1992)
